Activity calls are given as the source filed them. No cut-off for these calls is given here.
What was measured:
Type in all cases: functional, cell-based
[1] = biological target: T1, Taste receptor type 2 member 1 (Homo sapiens) (UniProt Q9NYW7); experiment: Agonist activity at recombinant human N-terminal rat ST3 receptor-fused TAS2R1 expressed in HEK293T cells co-expressing Galpha16gust44 assessed as effect on intracellular calcium level at 100 uM by FLIPR assay
T1 sequence (whole entry): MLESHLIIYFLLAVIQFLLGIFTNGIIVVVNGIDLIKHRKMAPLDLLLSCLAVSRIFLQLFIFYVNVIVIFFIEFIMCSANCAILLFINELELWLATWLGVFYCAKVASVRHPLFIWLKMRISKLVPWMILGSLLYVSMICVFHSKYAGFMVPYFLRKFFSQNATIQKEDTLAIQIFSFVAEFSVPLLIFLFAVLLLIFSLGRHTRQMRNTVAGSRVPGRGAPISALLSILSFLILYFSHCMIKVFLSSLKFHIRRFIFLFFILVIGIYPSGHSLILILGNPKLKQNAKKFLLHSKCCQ

[2] = biological target: Taste receptor type 2 member 5 (Homo sapiens) (UniProt Q9NYW4); experiment: Agonist activity at recombinant human N-terminal rat ST3 receptor-fused TAS2R5 expressed in HEK293T cells co-expressing Galpha16gust44 assessed as effect on intracellular calcium level at 100 uM by FLIPR assay
[3] = biological target: T2, Taste receptor type 2 member 8 (Homo sapiens) (UniProt Q9NYW2); experiment: Agonist activity at recombinant human N-terminal rat ST3 receptor-fused TAS2R8 expressed in HEK293T cells co-expressing Galpha16gust44 assessed as effect on intracellular calcium level at 100 uM by FLIPR assay
T2 sequence (whole entry): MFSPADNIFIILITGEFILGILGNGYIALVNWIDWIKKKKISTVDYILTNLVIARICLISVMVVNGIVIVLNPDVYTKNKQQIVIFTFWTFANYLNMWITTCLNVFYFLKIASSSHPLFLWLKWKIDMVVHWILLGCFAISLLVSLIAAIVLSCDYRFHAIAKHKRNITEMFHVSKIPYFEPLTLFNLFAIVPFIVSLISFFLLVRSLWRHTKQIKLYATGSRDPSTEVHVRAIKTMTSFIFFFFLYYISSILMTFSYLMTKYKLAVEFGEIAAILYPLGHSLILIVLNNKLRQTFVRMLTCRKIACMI

[4] = biological target: T3, Taste receptor type 2 member 46 (Homo sapiens) (UniProt P59540); experiment: Competitive antagonist activity at recombinant human N-terminal rat ST3 receptor-fused TAS2R46 expressed in HEK293T cells co-expressing Galpha16gust44 assessed as inhibition strychnine-induced intracellular calcium level by FLIPR assay
T3 sequence (whole entry): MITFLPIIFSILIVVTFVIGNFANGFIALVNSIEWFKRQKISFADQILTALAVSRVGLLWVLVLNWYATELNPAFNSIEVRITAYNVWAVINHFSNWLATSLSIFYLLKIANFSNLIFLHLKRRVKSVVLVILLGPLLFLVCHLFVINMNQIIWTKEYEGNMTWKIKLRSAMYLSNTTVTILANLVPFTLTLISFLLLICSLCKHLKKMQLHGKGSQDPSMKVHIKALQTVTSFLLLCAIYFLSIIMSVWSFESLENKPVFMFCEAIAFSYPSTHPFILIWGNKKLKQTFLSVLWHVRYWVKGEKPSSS

[5] = biological target: T4, Taste receptor type 2 member 39 (Homo sapiens) (UniProt P59534); experiment: Agonist activity at recombinant human N-terminal rat ST3 receptor-fused TAS2R39 expressed in HEK293T cells co-expressing Galpha16gust44 assessed as effect on intracellular calcium level at 100 uM by FLIPR assay
T4 sequence (whole entry): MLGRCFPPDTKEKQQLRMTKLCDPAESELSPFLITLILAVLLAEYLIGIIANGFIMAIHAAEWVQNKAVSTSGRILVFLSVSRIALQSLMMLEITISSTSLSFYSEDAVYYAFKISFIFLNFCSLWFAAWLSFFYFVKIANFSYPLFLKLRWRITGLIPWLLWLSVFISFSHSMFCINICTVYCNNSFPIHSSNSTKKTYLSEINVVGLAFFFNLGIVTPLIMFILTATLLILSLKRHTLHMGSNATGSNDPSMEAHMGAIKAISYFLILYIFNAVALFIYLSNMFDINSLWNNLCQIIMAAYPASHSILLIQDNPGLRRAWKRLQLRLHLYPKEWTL

[6] = biological target: T5, Taste receptor type 2 member 16 (Homo sapiens) (UniProt Q9NYV7); experiment: Agonist activity at recombinant human N-terminal rat ST3 receptor-fused TAS2R16 expressed in HEK293T cells co-expressing Galpha16gust44 assessed as effect on intracellular calcium level at 100 uM by FLIPR assay
T5 sequence (whole entry): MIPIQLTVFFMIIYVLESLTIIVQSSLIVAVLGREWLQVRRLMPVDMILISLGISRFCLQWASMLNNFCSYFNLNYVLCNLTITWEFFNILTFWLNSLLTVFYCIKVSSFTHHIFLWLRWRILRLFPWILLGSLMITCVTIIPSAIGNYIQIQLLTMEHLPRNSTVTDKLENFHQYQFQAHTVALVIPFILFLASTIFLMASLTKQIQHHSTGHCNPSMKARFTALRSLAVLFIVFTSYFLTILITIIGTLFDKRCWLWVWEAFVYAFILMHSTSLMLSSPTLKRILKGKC

[7] = biological target: Taste receptor type 2 member 60 (Homo sapiens) (UniProt P59551); experiment: Agonist activity at recombinant human N-terminal rat ST3 receptor-fused TAS2R60 expressed in HEK293T cells co-expressing Galpha16gust44 assessed as effect on intracellular calcium level at 100 uM by FLIPR assay
[8] = biological target: Taste receptor type 2 member 5 (Homo sapiens) (UniProt Q9NYW4); experiment: Activity at recombinant human N-terminal rat ST3 receptor-fused TAS2R5 expressed in HEK293T cells co-expressing Galpha16gust44 assessed as increase in denatonium saccharide-induced intracellular calcium level at 100 uM by FLIPR assay
[9] = biological target: Taste receptor type 2 member 7 (Homo sapiens) (UniProt Q9NYW3); experiment: Agonist activity at recombinant human N-terminal rat ST3 receptor-fused TAS2R7 expressed in HEK293T cells co-expressing Galpha16gust44 assessed as effect on intracellular calcium level at 100 uM by FLIPR assay
[10] = biological target: T6, Taste receptor type 2 member 46 (Homo sapiens, UniProt P59540); experiment: Antagonist activity at recombinant human N-terminal rat ST3 receptor-fused TAS2R46 expressed in HEK293T cells co-expressing Galpha16gust44 assessed as inhibition of 300 uM picrotoxinin-induced intracellular calcium level 100 uM by FLIPR assay
T6 sequence (P59540 whole entry): T3 sequence (whole entry)

Chain of Taste receptor type 2 member 5 (Homo sapiens) (Q9NYW4 whole entry, the tested form may be a part): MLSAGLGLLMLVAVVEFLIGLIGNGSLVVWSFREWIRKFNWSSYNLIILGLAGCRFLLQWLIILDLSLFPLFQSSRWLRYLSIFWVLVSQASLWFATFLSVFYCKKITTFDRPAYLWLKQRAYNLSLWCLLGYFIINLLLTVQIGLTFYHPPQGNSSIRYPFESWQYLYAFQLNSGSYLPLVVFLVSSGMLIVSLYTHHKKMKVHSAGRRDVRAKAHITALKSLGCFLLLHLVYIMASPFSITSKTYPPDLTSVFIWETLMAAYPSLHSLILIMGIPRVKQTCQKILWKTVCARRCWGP
Chain of Taste receptor type 2 member 7 (Homo sapiens) (Q9NYW3 whole entry, the tested form may be a part): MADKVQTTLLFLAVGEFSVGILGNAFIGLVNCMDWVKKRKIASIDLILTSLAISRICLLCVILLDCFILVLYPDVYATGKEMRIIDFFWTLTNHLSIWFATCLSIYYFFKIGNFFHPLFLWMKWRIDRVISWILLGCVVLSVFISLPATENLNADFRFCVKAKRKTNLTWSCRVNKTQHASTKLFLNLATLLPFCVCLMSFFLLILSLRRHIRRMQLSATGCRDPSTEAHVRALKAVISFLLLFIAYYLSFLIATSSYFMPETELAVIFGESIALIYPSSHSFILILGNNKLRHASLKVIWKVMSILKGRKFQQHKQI
Chain of Taste receptor type 2 member 60 (Homo sapiens) (P59551 whole entry, the tested form may be a part): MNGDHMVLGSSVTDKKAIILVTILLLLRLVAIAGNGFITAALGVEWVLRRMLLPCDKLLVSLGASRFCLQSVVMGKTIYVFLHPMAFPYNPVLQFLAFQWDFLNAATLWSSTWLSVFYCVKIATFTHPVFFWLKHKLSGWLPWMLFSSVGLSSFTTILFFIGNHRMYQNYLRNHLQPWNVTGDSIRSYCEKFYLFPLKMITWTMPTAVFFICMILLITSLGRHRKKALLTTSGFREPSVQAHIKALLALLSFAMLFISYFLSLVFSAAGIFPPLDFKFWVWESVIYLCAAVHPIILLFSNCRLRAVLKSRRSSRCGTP

C/C1=C\C[C@H](O)/C(C)=C/[C@H]2OC(=O)[C@@H](C)C2CC1 (stereo not given in full) was tested, and the Activity [1] was “Active”, the Activity [2] was “inactive” and the Activity [3] was “Active”. For the same compound, the inhibition [4] was “Active”, the Activity [5] was “inactive” and the Activity [6] was “inactive”. The Activity [7] was “inactive”, the Activity [8] was “Active” and the Activity [9] was “Active”.

C/C1=C\C[C@H](O)[C@@H](C)C[C@H]2OC(=O)[C@@H](C)C2CC1 (stereo not given in full) showed an IC50 [10] of 22.9 µM.
